Measurements reported in the NIST ThermoML archive (doi:10.1016/j.jct.2019.05.023).
Numbers after ± are expanded uncertainties.

Columns and labels:
[1] = 101.3 kPa, Liquid; for speed of sound: Frequency=3 MHz, Single path-length method; for mass density: Vibrating tube method
[2] = xn = mol fraction of the nth substance listed; conditions: 101.3 kPa, Liquid, x1 = 1; for speed of sound: Frequency=3 MHz, Single path-length method; for mass density: Vibrating tube method

Question: What does the source list for `CCOCCO` [2-ethoxyethan-1-ol]?
Answer: speed of sound ([1]; 298.15 K): 1304 ± 10 m/s; mass density ([1]; 298.15 K): 926 ± 2 kg/m3; speed of sound ([1]; 303.15 K): 1287 ± 10 m/s; mass density ([1]; 303.15 K): 921 ± 2 kg/m3; speed of sound ([1]; 308.15 K): 1270 ± 10 m/s; mass density ([1]; 308.15 K): 917 ± 2 kg/m3; speed of sound ([1]; 313.15 K): 1252 ± 10 m/s; mass density ([1]; 313.15 K): 912 ± 2 kg/m3; speed of sound ([1]; 318.15 K): 1234 ± 10 m/s; mass density ([1]; 318.15 K): 907 ± 2 kg/m3

Question: For `CCn1cc[n+](C)c1.O=S(=O)([O-])C(F)(F)F` [1-ethyl-3-methylimidazolium trifluoromethanesulfonate], which speed of sound ([1]; 298.15 K) is on record?
Answer: 1436 ± 10 m/s

Question: And the mass density ([1]; 298.15 K)?
Answer: 1383 ± 2 kg/m3

Question: And the speed of sound ([1]; 303.15 K)?
Answer: 1425 ± 10 m/s

Question: And the mass density ([1]; 303.15 K)?
Answer: 1379 ± 2 kg/m3

Question: And the speed of sound ([1]; 308.15 K)?
Answer: 1413 ± 10 m/s

Question: And the mass density ([1]; 308.15 K)?
Answer: 1374 ± 2 kg/m3

Question: And the speed of sound ([1]; 313.15 K)?
Answer: 1402 ± 10 m/s

Question: And the mass density ([1]; 313.15 K)?
Answer: 1370 ± 2 kg/m3

Question: And the speed of sound ([1]; 318.15 K)?
Answer: 1391 ± 10 m/s

Question: And the mass density ([1]; 318.15 K)?
Answer: 1366 ± 2 kg/m3

Question: Which speed of sound ([2]; 298.15 K) does the source give for `CCn1cc[n+](C)c1.O=S(=O)([O-])C(F)(F)F` [1-ethyl-3-methylimidazolium trifluoromethanesulfonate] + CCOCCO here?
Answer: 1436 ± 10 m/s

Question: And the mass density ([2]; 298.15 K)?
Answer: 1383 ± 2 kg/m3

Question: What about the speed of sound ([2]; 303.15 K) of the same compound?
Answer: 1425 ± 10 m/s

Question: What about the mass density ([2]; 303.15 K) of the same compound?
Answer: 1379 ± 2 kg/m3

Question: And the speed of sound ([2]; 308.15 K)?
Answer: 1413 ± 10 m/s

Question: What about the mass density ([2]; 308.15 K) of the same compound?
Answer: 1374 ± 2 kg/m3

Question: What about the speed of sound ([2]; 313.15 K) of the same compound?
Answer: 1402 ± 10 m/s

Question: What about the mass density ([2]; 313.15 K) of the same compound?
Answer: 1370 ± 2 kg/m3

Question: What about the speed of sound ([2]; 318.15 K) of the same compound?
Answer: 1391 ± 10 m/s

Question: What about the mass density ([2]; 318.15 K) of the same compound?
Answer: 1366 ± 2 kg/m3

Question: Which results are given for `CCn1cc[n+](C)c1.O=S(=O)([O-])C(F)(F)F` [1-ethyl-3-methylimidazolium trifluoromethanesulfonate] + CCCOCCO?
Answer: speed of sound ([2]; 298.15 K): 1436 ± 10 m/s; mass density ([2]; 298.15 K): 1383 ± 2 kg/m3; speed of sound ([2]; 303.15 K): 1425 ± 10 m/s; mass density ([2]; 303.15 K): 1379 ± 2 kg/m3; speed of sound ([2]; 308.15 K): 1413 ± 10 m/s; mass density ([2]; 308.15 K): 1374 ± 2 kg/m3; speed of sound ([2]; 313.15 K): 1402 ± 10 m/s; mass density ([2]; 313.15 K): 1370 ± 2 kg/m3; speed of sound ([2]; 318.15 K): 1391 ± 10 m/s; mass density ([2]; 318.15 K): 1366 ± 2 kg/m3

Question: With `CCCOCCO` [2-propoxyethanol] as the compound, how does the speed of sound ([1]; 298.15 K) read?
Answer: 1301 ± 10 m/s

Question: What about the mass density ([1]; 298.15 K) of the same compound?
Answer: 908 ± 2 kg/m3

Question: And the speed of sound ([1]; 303.15 K)?
Answer: 1283 ± 10 m/s

Question: And the mass density ([1]; 303.15 K)?
Answer: 903 ± 2 kg/m3

Question: And the speed of sound ([1]; 308.15 K)?
Answer: 1266 ± 10 m/s

Question: What about the mass density ([1]; 308.15 K) of the same compound?
Answer: 899 ± 2 kg/m3

Question: And the speed of sound ([1]; 313.15 K)?
Answer: 1248 ± 10 m/s

Question: And the mass density ([1]; 313.15 K)?
Answer: 895 ± 2 kg/m3

Question: And the speed of sound ([1]; 318.15 K)?
Answer: 1231 ± 10 m/s

Question: And the mass density ([1]; 318.15 K)?
Answer: 890 ± 2 kg/m3
